The results in this text go back to patent publication US7416876B2, “N-carbobenzyloxy (N-CBZ)-deprotecting enzyme” (Bristol-Meyers Squibb Company, priority 2001, dated 2008).

Series [1] deals with CBZ-deprotecting enzyme (cell extracts of Sphingomonas paucimobilis ATCC 202027). Put plainly: CBZ-deprotection using cell extract. The class given is biochemical. Particulars: 42° C., 18-20 hours, HPLC. The procedure: (§1) HPLC analysis was performed using a Hewlett-Packard (HP) 1090 instrument with a Vydac C-18 reverse phase column. The mobile phase solvent A containing 0.1% trifluoroacetic acid (TFA) in water and solvent B containing 0.1% TFA in 70% acetonitrile: 30% water. The following gradient of solvent A and B was used for the separation of substrates and products:
(§2) 0-15 min: 50% B,15-25 min: 100% B, 25-26 min: 0% B, and 26-30 min: 0% B. The flow rate was 1 mL/min. The column temperature was ambient, and the detection wavelength was at 215 nm. Under these conditions, the retention times for Compound A, Compound B, CBZ-L-Phenylalanine and L-Phenylalanine are 15.48 min., 7.28 min., 16.99 min. and 7.35 min., respectively. All other CBZ-containing compounds were also analyzed using these conditions.
Preparation of cell extracts were carried out at 4-7° C. Cells were washed with 50 mM potassium phosphate buffer, pH 7.0, and the washed cells (100 g) were suspended in 500 mL of buffer A (50 mM phosphate buffer, pH 7.0 containing 10% glycerol, and 2 mM DTT). To the cell suspensions, 1 mM phenylmethylsulfonyl fluoride (PMSF) solution in isopropanol was added. Cell suspensions (20% W/V, wet cells) were passed through a Microfluidizer (Microfluidics, Inc) at 12,000 psi (two passages) and disintegrated cells were centrifuged at 25,000×g for 30 min at 4° C. The supernatant solution obtained after centrifugation is referred to as cell extract.
The cell extracts was used in deprotecting the CBZ-group from various compounds. It was useful in deprotecting CBZ-groups in various processes. Various D and L-CBZ-protected amino acids were incubated with the cell extract at 42° C. for 18 -20 hours. The reactions were stopped by addition of 2 volumes of 50% acetonitrile containing 0.4% trifluro acetic acid (TFA). The results shown in table 2 indicate that the enzyme is specific in hydrolyzing the CBZ-group from CBZ-protected L-amino acids.

Series [2] relates to Sphingomonas paucimobilis. Put plainly: Biotransformation (CBZ deprotection) using whole cells. The class given is cell-based. As to conditions: whole cells grown in medium B with 25 mg substrate, 28° C., 48 hours, HPLC. The procedure:
In this process, the Sphingomonas paucimobilis was grown in 25 mL of medium B containing 25 mg of substrate (Compound A or CBZ-L-Phenylalanine) in a 250-mL flask. The flask was incubated at 28° C. and 250 rpm on a shaker. After 48 hours of biotransformation, the cells were removed by centrifugation. The supernatant containing the product [4S-(4α,7α,10aβ)]-Octahydro-5-oxo-4-amino-7H-pyrido-[2,1-b] [1,3]thiazepine-7-carboxylic acid, methyl ester (Compound B) or L-Phenylalanine was analyzed by HPLC.
as §1, §2

Series [3] concerns recombinant N-CBZ-deprotecting enzyme. Put plainly: Deprotection with recombinant enzyme (cell extract from E. coli BL21 (DE3)(pBMS2000-cbz)). As to conditions: 0.5 mg substrate, 0.5 ml cell extract, 28° C., 1 hr, HPLC. The class given is biochemical, Sphingomonas paucimobilis. As for the experimental part:
The reaction contained 0.5 mg of CBZ-L-phe and 0.5 ml of cell extract from E. coli BL21 (DE3)(pBMS2000-cbz) that expressed the deprotecting enzyme. Preparation of cell extract was as follows: 2 g of recombinant cells were suspended in 10 mL buffer A (50 mM phosphate buffer, pH 7.5, 1 mM EDTA), sonicated for 2 minutes (20 seconds pulse on and 30 seconds pulse off) using a model 550 Sonic Dismembrator from Misonix Inc., Farmingdale, N.Y. The disintegrated cells were centrifuged for 15 min at 8000 rpm at 4° C. and the resulting supernatant, referred to as a cell extract, was used for these studies. The reactions were carried out in a culture tube at 28° C. After 1 hr, samples were quenched with 1 ml of acetonitrile and analyzed by HPLC (described earlier).

The test system of series [4] is CBZ-deprotecting enzyme. Put plainly: Deprotection of CBZ-containing compounds with purified CBZ-deprotecting enzyme. The format is biochemical, Sphingomonas paucimobilis. As to conditions: for % Conversion: purified enzyme. The procedure:
Compound A or CBZ-phenylalanine at 0.5mg was incubated with 0.4 mL of cell extract/fractions in 50 mM phosphate buffer, pH 7 at 45° C. for 18 hours. The reaction is stopped by the addition 1 ml of 50% acetonitrile containing 0.4% TFA. The samples were filtered and analyzed by HPLC for product and starting material. All the purification steps were carried out at room temperature. The purification of the enzyme was carried out using CBZ-L-phenylalanine as the substrate. The cell extract, prepared as above, was batch adsorbed with DEAE-cellulose (pre-equilibrated with buffer A) for 2 hours. The follow-through, which contained the active enzyme, was precipitated with ammonium sulfate (516 g/L) with constant stirring for 2 hours. The resulting precipitate obtained by centrifugation (15,000 rpm at 4° C.) was solubilized in buffer A containing 1M ammonium sulfate, loaded on to phenylsepharose (20 mL column which was pre-equlibriaiated with buffer A containing 1M ammonium sulfate). The column was sequentially washed with the buffer A containing 1M ammonium sulfate, 0.5M ammonium sulfate and 0.2M ammonium sulfate. Finally, the enzyme was eluted with buffer A. The fractions containing active enzyme were pooled (30 mL) and concentrated with Amicon PM-10 membrane (8 mL). The enzyme was then loaded on to S-200 gel-filtration column (400 mL column). The enzyme was eluted with buffer A with a flow rate of 0.8 mL/min. With these steps the enzyme was purified more than 150-fold with a specific activity of 13.9 units/mg protein (table 3). The unit is defined as μmole of product formed/min/mg of protein. The enzyme is a […] protein with a molecular weight of 154,000 daltons with a subunit molecular weight of 45,000 daltons, as determined by SDS-PAGE. The purified enzyme prepared as described in this section has been used to deprotect CBZ-containing compounds as shown in table 4.

On to `O=C(N[C@@H](Cc1ccccc1)C(=O)O)OCc1ccccc1` [CBZ-L-Phenylalanine, N-α-CBZ-L-phenylalanine], for which the “% Conversion” value in series [1], in series [2] and in series [4] was 100% each time. Besides, in series [3], the “deprotection of the substrate” value is listed as “complete deprotection”.

For `COC(=O)[C@@H]1CCC[C@@H]2SCC[C@H](NC(=O)OCc3ccccc3)C(=O)N21` [Compound A, [4S-(4α,7α, 10aβ)]-Octahydro-5-oxo-4-[[(phenylmethoxy)carbonyl]amino]-7H-pyrido-[2,1-b] [1,3]thiazepine-7-carboxylic acid, methyl ester], the entries for the “% Conversion” value in series [1], in series [2] and in series [4] were 95%, 100% and 100%, respectively.

In the case of `CC(C)C[C@@H](NC(=O)OCc1ccccc1)C(=O)O` [N-α-CBZ-D-Leucine], the “% Conversion” value in series [1] is listed as 1.2%.

For `O=C(O)[C@H]1CCCN1C(=O)OCc1ccccc1` [N-α-CBZ-D-Proline], the “% Conversion” value in series [1] came to 0%.

With `O=C(N[C@H](Cc1ccccc1)C(=O)O)OCc1ccccc1` [N-α-CBZ-D-phenylalanine], the “% Conversion” value in series [1] is reported as 0%.

For the molecule `O=C(N[C@H](Cc1ccc(O)cc1)C(=O)O)OCc1ccccc1` [N-α-CBZ-D-tyrosine], the “% Conversion” value in series [1] is listed as 1.58%.

Regarding `CC(C)C[C@H](NC(=O)OCc1ccccc1)C(=O)O` [N-α-CBZ-L-Leucine], the “% Conversion” value in series [1] was determined as 100%.

Consider `NCCCC[C@H](NC(=O)OCc1ccccc1)C(=O)O` [N-α-CBZ-L-Lysine, N-α-CBZ-L-lysine], for which the “% Conversion” value in series [1] is recorded as 52%.

As for `O=C(O)[C@@H]1CCCN1C(=O)OCc1ccccc1` [N-α-CBZ-L-Proline], the “% Conversion” value in series [1] came to 100%.

On to `O=C(N[C@@H](Cc1ccc(O)cc1)C(=O)O)OCc1ccccc1` [N-α-CBZ-L-tyrosine], for which the “% Conversion” value in series [1] is given as 100%.

For the molecule `O=C(NCCCC[C@H](NC(=O)OCc1ccccc1)C(=O)O)OCc1ccccc1` [N-α-ε-(CBZ)2-L-Lysine], the “% Conversion” value in series [1] is on record as 24%.

In the case of `N[C@H](CCCCNC(=O)OCc1ccccc1)C(=O)O` [N-ε-CBZ-D-Lysine], the “% Conversion” value in series [1] was 7%.

Turning to O-α-CBZ-L-tyrosine, the “% Conversion” value in series [1] is on record as 100%.

B1: CBZ-deprotecting enzyme: enzyme purified from Sphingomonas paucimobilis ATCC 202027 that removes CBZ from protected amines and alcohols; SEQ ID NO:2 (protein, listed as Sphingomonas paucimobilis)
chain: MVQPTPTPQSELPGLIARDMEGLMTLYRDLHANPELSLQEVNTAAKLAKRLKAMKFDVTEKVGGTGVVAVMKNGSGPVLLIRADMDGLPVVEQTGLDFASKVRTKTPEGVETGVMHACGHDTHMTAFIETAKLLSSQKDKWKGTLVMILQPAEEVGKGARDMLEDGLYTRFPRPTHAIAFHDAANLQAGVVGYTPGYALANVDSVDIVVKGLGGHGAYPQTTRDPIVLGSRIVTSLQTLVSREQDPQDPAVVTVGSFQAGAKHNIIPDQALLLLTVRSYSDETRAKLIKGIERIARGEAIAAGVPDDKMPVVSVKDEFTPSTYNPPEFAEQMGALLKGHFAEGRVVKTPAVMGGEDFGRFYRADKSINSFIFWVGGVPADKMAAAQAGQITLPSLHSPFWAPEADKVIATASEAMTVLAMDILKKD
The molecule B1 returned a specific activity in series [4] (purified enzyme after S-200 gel filtration, CBZ-L-phenylalanine as substrate) of 13.9 units/mg protein.
